# According to the NIST ThermoML archive (doi:10.1021/je301087w):
# Numbers after ± are expanded uncertainties.
# What was measured:
# [1] = Molar enthalpy of transition or fusion; details: Crystal; DSC
# [2] = Crystal; DTA
Molar enthalpy of transition or fusion [1] [kcal/mol],Normal melting temperature [2] [°C],Structure (SMILES)
4.66 ± 0.932,9.90 ± 0.53,"C1COCCOCCOCCOCCOCCO1.O.O.O.O.O.O.O.O.O.O.O.O [1,4,7,10,13,16-hexaoxacyclooctadecane dodecahydrate]"
2.8 ± 0.574,17.10 ± 0.53,"C1COCCOCCOCCOCCOCCO1.O.O.O.O.O.O.O.O [1,4,7,10,13,16-hexaoxacyclooctadecane octahydrate]"
8.48 ± 0.741,39.10 ± 0.53,"C1COCCOCCOCCOCCOCCO1 [1,4,7,10,13,16-hexaoxacyclooctadecane]"
